Legend:
Assay in all cases: PDE4 Activity Assay
Settings in all cases: pH 7.5; 22 °C
[1] = biological target: cAMP-specific 3',5'-cyclic phosphodiesterase 4A (Homo sapiens, UniProt P27815)
Procedure: (§1) PDE4 catalytic activity was monitored by measuring the hydrolysis of [3H]-cAMP to [3H]-AMP using PDE-SPA kit (Amersham International). [3H]-AMP was captured by the SPA beads, and quantified on a Wallac-Microbeta scintillation counter. A linear reaction progress curve (30 min) and a linear enzyme concentration response (0 to 500 pM) were observed. The IC50 value was calculated from an 11-point dose-response curve performed in duplicate using a 4-parameter least-squares nonlinear regression fit.

[2] = biological target: cAMP-specific 3',5'-cyclic phosphodiesterase 4B (Homo sapiens, UniProt Q07343)
Procedure: as §1

[3] = biological target: cAMP-specific 3',5'-cyclic phosphodiesterase 4C (Homo sapiens, UniProt Q08493)
Procedure: as §1

[4] = biological target: cAMP-specific 3',5'-cyclic phosphodiesterase 4D (Homo sapiens, UniProt Q08499)
Procedure: as §1

cAMP-specific 3',5'-cyclic phosphodiesterase 4B, sequence (Q07343 whole entry): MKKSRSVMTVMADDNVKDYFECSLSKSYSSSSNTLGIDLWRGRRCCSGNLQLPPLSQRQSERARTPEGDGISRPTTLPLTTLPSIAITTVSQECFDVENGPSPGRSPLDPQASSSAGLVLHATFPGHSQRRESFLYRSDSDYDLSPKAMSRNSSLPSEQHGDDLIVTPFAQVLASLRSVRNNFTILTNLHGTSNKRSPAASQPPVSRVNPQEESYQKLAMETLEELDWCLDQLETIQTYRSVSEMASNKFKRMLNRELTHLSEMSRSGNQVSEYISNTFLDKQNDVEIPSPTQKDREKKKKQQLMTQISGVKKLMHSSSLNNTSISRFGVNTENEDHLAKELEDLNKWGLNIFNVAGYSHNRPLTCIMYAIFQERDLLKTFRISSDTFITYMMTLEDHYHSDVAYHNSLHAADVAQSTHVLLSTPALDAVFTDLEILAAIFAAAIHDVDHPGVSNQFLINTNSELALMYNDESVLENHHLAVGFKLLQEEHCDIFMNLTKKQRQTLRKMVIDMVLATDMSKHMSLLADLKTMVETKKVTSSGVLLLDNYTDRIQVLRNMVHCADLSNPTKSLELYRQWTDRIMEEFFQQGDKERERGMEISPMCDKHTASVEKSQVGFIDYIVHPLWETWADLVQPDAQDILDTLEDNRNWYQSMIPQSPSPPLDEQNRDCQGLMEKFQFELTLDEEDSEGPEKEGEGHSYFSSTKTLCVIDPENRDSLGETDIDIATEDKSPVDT
cAMP-specific 3',5'-cyclic phosphodiesterase 4C, sequence (Q08493 whole entry): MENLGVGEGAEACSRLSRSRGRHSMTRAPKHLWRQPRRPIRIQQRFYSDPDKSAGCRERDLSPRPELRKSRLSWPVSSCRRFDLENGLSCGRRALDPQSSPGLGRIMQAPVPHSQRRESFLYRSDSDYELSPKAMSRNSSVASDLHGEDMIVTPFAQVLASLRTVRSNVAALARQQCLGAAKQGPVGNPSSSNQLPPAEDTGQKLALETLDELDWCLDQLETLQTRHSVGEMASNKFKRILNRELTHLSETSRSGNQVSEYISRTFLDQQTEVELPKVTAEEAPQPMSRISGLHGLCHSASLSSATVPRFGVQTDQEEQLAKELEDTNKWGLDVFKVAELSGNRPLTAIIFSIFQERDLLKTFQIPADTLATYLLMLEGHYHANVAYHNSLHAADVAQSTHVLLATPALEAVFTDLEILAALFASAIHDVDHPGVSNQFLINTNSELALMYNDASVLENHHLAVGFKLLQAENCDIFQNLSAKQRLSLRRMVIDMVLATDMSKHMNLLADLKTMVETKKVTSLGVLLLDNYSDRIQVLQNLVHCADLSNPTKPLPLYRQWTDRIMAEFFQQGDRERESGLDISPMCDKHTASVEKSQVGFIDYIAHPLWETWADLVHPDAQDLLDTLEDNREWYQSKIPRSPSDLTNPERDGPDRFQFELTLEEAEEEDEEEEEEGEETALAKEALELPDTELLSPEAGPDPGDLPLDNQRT
cAMP-specific 3',5'-cyclic phosphodiesterase 4A, sequence (P27815 whole entry): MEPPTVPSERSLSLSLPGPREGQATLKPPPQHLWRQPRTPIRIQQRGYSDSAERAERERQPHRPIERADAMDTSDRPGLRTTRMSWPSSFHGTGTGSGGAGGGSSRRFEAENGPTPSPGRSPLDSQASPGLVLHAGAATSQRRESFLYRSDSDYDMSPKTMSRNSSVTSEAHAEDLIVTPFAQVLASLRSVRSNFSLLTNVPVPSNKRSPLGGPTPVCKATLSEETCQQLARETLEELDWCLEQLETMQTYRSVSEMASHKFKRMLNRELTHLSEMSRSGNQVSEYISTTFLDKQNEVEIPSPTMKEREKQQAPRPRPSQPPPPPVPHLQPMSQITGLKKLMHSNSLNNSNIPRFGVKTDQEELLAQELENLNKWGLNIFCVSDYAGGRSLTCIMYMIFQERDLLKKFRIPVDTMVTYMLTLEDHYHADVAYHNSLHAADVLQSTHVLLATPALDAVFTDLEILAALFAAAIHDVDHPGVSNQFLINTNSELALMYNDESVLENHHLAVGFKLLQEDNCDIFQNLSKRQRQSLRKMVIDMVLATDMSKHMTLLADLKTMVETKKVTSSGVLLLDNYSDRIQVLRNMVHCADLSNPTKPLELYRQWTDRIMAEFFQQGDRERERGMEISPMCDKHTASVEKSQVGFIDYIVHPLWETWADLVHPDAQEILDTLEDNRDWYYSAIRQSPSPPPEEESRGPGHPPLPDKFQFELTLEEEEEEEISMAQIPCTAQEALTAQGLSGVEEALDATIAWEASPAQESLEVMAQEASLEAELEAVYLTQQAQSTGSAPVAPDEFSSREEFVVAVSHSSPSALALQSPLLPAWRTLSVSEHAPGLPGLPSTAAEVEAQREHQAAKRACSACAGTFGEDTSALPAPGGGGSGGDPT
cAMP-specific 3',5'-cyclic phosphodiesterase 4D, sequence (Q08499 whole entry): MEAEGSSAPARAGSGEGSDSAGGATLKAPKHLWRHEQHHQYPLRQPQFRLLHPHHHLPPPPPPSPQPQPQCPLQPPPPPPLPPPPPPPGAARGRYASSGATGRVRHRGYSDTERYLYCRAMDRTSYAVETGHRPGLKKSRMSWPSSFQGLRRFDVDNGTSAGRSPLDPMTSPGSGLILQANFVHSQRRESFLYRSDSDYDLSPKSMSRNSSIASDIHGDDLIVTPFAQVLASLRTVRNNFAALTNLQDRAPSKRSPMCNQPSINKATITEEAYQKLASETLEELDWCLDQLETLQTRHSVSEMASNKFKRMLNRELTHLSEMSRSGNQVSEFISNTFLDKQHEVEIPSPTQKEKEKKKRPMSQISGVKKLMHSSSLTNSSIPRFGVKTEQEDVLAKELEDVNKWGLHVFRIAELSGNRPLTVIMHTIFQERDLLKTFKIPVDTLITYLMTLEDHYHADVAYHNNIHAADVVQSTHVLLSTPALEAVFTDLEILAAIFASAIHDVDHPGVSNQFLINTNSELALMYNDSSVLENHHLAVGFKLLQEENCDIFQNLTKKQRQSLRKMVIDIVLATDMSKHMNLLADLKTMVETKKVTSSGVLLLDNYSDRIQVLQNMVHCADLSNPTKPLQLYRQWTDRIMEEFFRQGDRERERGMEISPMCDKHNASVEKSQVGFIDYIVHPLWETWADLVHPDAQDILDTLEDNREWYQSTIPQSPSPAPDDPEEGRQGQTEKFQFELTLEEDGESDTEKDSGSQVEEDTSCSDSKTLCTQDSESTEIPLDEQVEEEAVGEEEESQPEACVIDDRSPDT

Row | Structure (SMILES) | IC50 [1] [nM] | IC50 [2] [nM] | IC50 [3] [nM] | IC50 [4] [nM]
1 | [O-][n+]1cccc(C[C@H](c2ccc(OC(F)F)c(OC3CC3)c2)c2ncc(C(O)(C(F)(F)F)C(F)(F)F)s2)c1 [(R)-(-)-3-{2-[(3-cyclopropyloxy-4-difluromethoxy)phenyl]-2-[5-(2-(1-hydroxy-1-trifluoromethyl-2,2,2-trifluoro)ethyl)thiazolyl]ethyl}pyridine N-Oxide] | 56 | 40 | 135 | –
2 | [O-][n+]1cccc(C[C@@H](c2ccc(OC(F)F)c(OC3CC3)c2)c2ncc(C(O)(C(F)(F)F)C(F)(F)F)s2)c1 [3-[(2S)-2-[3-cyclopropoxy-4-(difluoromethoxy)phenyl]-2-[5-(1,1,1,3,3,3-hexafluoro-2-hydroxypropan-2-yl)-1,3-thiazol-2-yl]ethyl]-1-oxidopyridin-1-ium] | 0.4 | 0.4 | 1 | 0.4

Source: BindingDB's records for doi:10.1021/jm051273d (University of North Carolina At Chapel Hill, 2006)
